Measured values from patent publication US10131653B2, “Heterocyclic compound” (TAKEDA PHARMACEUTICAL COMPANY LIMITED, priority 2015, dated 2018).
Read-outs that look alike come from different tables or passages of the source.

Legend:
[1] = target: T1, human OX1 receptor (Homo sapiens, UniProt O43613); assay: Measurement of orexin receptor antagonistic activity (calcium fluorescence, FLIPRtetra); assay type: cell-based; details: CHO, read-out: Human Orexin1 receptor inhibition (at 10 μM)
T1 construct: expressed in transfected cells; host or cells: CHO cells
T1 sequence (O43613 1-425): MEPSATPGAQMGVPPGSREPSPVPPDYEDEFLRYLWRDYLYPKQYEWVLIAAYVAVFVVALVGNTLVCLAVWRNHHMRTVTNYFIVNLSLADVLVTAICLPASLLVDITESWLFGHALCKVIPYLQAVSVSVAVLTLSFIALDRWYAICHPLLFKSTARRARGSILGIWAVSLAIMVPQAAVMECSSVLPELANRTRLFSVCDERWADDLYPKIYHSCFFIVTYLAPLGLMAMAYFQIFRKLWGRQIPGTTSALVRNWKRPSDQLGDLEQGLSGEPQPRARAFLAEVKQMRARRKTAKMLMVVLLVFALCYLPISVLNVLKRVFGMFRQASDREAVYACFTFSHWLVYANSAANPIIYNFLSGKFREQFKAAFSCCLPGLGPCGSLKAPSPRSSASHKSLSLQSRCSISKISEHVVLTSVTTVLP
Outline: (§1)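 Calcium fluorescence measured by FLIPRtetra every second for 2 min after orexin-A challenge, 1 nM final for OX1 and 0.3 nM final for OX2. Receptor-expressing CHO cells received compound in HEPES-buffered HBSS with 0.1% BSA just before agonist.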

[2] = target: T2, human OX2 receptor (Homo sapiens, UniProt O43614); assay: as above; assay type: cell-based; details: CHO, read-out: Human Orexin2 receptor inhibition (at 10 μM)
T2 construct: expressed in transfected cells; host or cells: CHO cells
T2 sequence (O43614 1-444): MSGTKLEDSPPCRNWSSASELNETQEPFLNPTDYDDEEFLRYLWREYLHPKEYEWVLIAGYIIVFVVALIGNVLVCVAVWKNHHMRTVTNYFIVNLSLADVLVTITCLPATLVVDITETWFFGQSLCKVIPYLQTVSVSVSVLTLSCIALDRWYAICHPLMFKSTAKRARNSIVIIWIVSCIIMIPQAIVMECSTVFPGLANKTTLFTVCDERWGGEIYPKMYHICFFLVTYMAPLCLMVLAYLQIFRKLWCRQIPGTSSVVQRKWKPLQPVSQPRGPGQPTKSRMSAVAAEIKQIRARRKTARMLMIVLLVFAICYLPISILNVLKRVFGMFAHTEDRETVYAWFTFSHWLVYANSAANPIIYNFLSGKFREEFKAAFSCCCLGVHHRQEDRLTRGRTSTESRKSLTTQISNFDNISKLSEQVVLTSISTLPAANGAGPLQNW
Outline: as §1

[3] = 10 μM test compound, CHO cells expressing human OX1 receptor, OX-A 1 nM
[4] = 10 μM test compound, CHO cells expressing human OX2 receptor, OX-A 0.3 nM

inhibition at 10 µM [1, 3] [%] | inhibition at 10 µM [2, 4] [%] | Compound | inhibition at 10 µM [1] [%] | inhibition at 10 µM [2] [%]
38 | 86 | Cc1ccc(-n2nccn2)c(C(=O)N2CCN(c3nc(C)cnc3C)OC[C@H]2C)c1 [Example 129, ((6R)-2-(3,6-dimethylpyrazin-2-yl)-6-methyl-1,2,5-oxadiazepan-5-yl) (5-methyl-2-(2H-1,2,3-triazol-2-yl)phenyl)methanone] |  | 
96 | 97 | COc1cccc(N2CCN(C(=O)c3cc(C)ccc3-n3nccn3)[C@H](C)CO2)n1 [Example 126, ((6R)-2-(6-methoxypyridin-2-yl)-6-methyl-1,2,5-oxadiazepan-5-yl) (5-methyl-2-(2H-1,2,3-triazol-2-yl)phenyl)methanone] |  | 
104 | 96 | Cc1cc(N2CCN(C(=O)c3cc(Cl)ccc3-n3nccn3)C[C@H](C)O2)nc(C(F)(F)F)n1 [Example 104, (5-chloro-2-(2H-1,2,3-triazol-2-yl)phenyl)((7S)-7-methyl-2-(6-methyl-2-(trifluoromethyl)pyrimidin-4-yl)-1,2,5-oxadiazepan-5-yl)methanone] |  | 
36 | 95 | Cc1ccc(-n2nccn2)c(C(=O)N2CCN(c3cc(C#N)ccn3)OC[C@H]2C)c1 [Example 136, 2-((6R)-6-methyl-5-(5-methyl-2-(2H-1,2,3-triazol-2-yl)benzoyl)-1,2,5-oxadiazepan-2-yl)isonicotinonitrile] |  | 
90 | 101 | Cc1nc(C(F)F)cc(N2C[C@H](C)N(C(=O)c3cc(F)ccc3-n3nccn3)[C@H](C)CO2)n1 [Example 180, ((4S,6R)-2-(6-(difluoromethyl)-2-methylpyrimidin-4-yl)-4,6-dimethyl-1,2,5-oxadiazepan-5-yl)(5-fluoro-2-(2H-1,2,3-triazol-2-yl)phenyl)methanone] |  | 
96 | 98 | C[C@H]1CN(C(=O)c2cc(Cl)ccc2-n2nccn2)CCN(c2cc(C(F)F)nc(C3CC3)n2)O1 [Example 105, (5-chloro-2-(2H-1,2,3-triazol-2-yl)phenyl)((7S)-2-(2-cyclopropyl-6-(difluoromethyl)pyrimidin-4-yl)-7-methyl-1,2,5-oxadiazepan-5-yl)methanone] |  | 
55 | 102 | Cc1cc(N2CCN(C(=O)c3ccccc3-c3noc(C)n3)C[C@H](C)O2)nc(C)n1 [Example 232, ((7S)-2-(2,6-dimethylpyrimidin-4-yl)-7-methyl-1,2,5-oxadiazepan-5-yl)(2-(5-methyl-1,2,4-oxadiazol-3-yl)phenyl)methanone] |  | 
70 | 101 | Cc1cc(N2CCN(C(=O)c3ccc(Cl)cc3-n3nccn3)CCO2)nc(C)n1 [Example 204, (4-chloro-2-(2H-1,2,3-triazol-2-yl)phenyl)(2-(2,6-dimethylpyrimidin-4-yl)-1,2,5-oxadiazepan-5-yl)methanone] |  | 
83 | 100 | Cc1cc(N2CCN(C(=O)c3ccc(Cl)cc3-n3nccn3)C[C@H](C)O2)nc(C)n1 [Example 200, (4-chloro-2-(2H-1,2,3-triazol-2-yl)phenyl)((7S)-2-(2,6-dimethylpyrimidin-4-yl)-7-methyl-1,2,5-oxadiazepan-5-yl)methanone] |  | 
59 | 101 | Cc1cc(N2CCN(C(=O)c3c(C)cccc3-c3ncccn3)CCO2)nc(C)n1 [Example 216, (2-(2,6-dimethylpyrimidin-4-yl)-1,2,5-oxadiazepan-5-yl)(2-methyl-6-(pyrimidin-2-yl)phenyl)methanone] |  | 
10 | 67 | COc1cncc(N2CCN(C(=O)c3cc(C)ccc3-n3nccn3)[C@H](C)CO2)c1 [Example 132, ((6R)-2-(5-methoxypyridin-3-yl)-6-methyl-1,2,5-oxadiazepan-5-yl) (5-methyl-2-(2H-1,2,3-triazol-2-yl)phenyl)methanone] |  | 
103 | 103 | Cc1nccc(N2C[C@H](C)N(C(=O)c3ccccc3-n3nccn3)[C@H](C)CO2)n1 [Example 173, ((4S,6R)-4,6-dimethyl-2-(2-methylpyrimidin-4-yl)-1,2,5-oxadiazepan-5-yl) (2-(2H-1,2,3-triazol-2-yl)phenyl)methanone] |  | 
87 | 98 | C[C@H]1CN(C(=O)c2ccccc2-n2nccn2)CCN(c2ccn3nccc3n2)O1 [Example 99, ((7S)-7-methyl-2-(pyrazolo[1,5-a]pyrimidin-5-yl)-1,2,5-oxadiazepan-5-yl)(2-(2H-1,2,3-triazol-2-yl)phenyl)methanone] |  | 
81 | 97 | Cc1nc(N2CCN(C(=O)c3cc(F)ccc3-n3nccn3)[C@H](C)CO2)nc(C)c1F [Example 166, ((6R)-2-(5-fluoro-4,6-dimethylpyrimidin-2-yl)-6-methyl-1,2,5-oxadiazepan-5yl)(5-fluoro-2-(2H-1,2,3-triazol-2-yl)phenyl)methanone] |  | 

Further lines, the molecule ahead of its results:

Compound | inhibition at 10 µM [1, 3] [%] | inhibition at 10 µM [2, 4] [%] | inhibition at 10 µM [1] [%] | inhibition at 10 µM [2] [%]
Cc1cc(C)nc(N2CCN(C(=O)c3ccccc3-c3ncc[nH]3)CCO2)n1 [Example 82, (2-(4,6-dimethylpyrimidin-2-yl)-1,2,5-oxadiazepan-5-yl) (2-(1H-imidazol-2-yl)phenyl)methanone] | 18 | 83 |  | 
Cc1ccc(-n2nccn2)c(C(=O)N2CCN(c3ccnc(C(F)(F)F)c3)OC[C@H]2C)c1 [Example 146, (5-methyl-2-(2H-1,2,3-triazol-2-yl)phenyl) ((6R)-6-methyl-2-(2-(trifluoromethyl)pyridin-4-yl)-1,2,5-oxadiazepan-5-yl)methanone] |  |  | 66 | 88
Cc1ccc(-n2nccn2)c(C(=O)N2CCN(c3cc(C)nc(C)c3)OC[C@H]2C)c1 [Example 143, ((6R)-2-(2,6-dimethylpyridin-4-yl)-6-methyl-1,2,5-oxadiazepan-5-yl) (5-methyl-2-(2H-1,2,3-triazol-2-yl)phenyl)methanone] |  |  | 1 | 44
Cc1cc(N2CCN(C(=O)c3ccccc3-c3nc(C)no3)CCO2)nc(C)n1 [Example 24, (2-(2,6-dimethyl-pyrimidin-4-yl)-1,2,5-oxadiazepan-5-yl) (2-(3-methyl-1,2,4-oxadiazol-5-yl)phenyl) methanone] | 13 | 99 |  | 
Cc1ccc(-n2nccn2)c(C(=O)N2CCN(c3ccc(F)c(Cl)c3)OC[C@H]2C)c1 [Example 134, ((6R)-2-(3-chloro-4-fluorophenyl)-6-methyl-1,2,5-oxadiazepan-5-yl) (5-methyl-2-(2H-1,2,3-triazol-2-yl)phenyl)methanone] |  |  | 92 | 80
Cc1cc(C)nc(N2CCN(C(=O)c3cc(Cl)cc(Cl)c3)CCO2)n1 [Example 56, (3,5-dichlorophenyl) (2-(4,6-dimethylpyrimidin-2-yl)-1,2,5-oxadiazepan-5-yl)methanone] | 21 | 96 |  | 
Cc1cc(C)nc(N2CCN(C(=O)c3ccccc3-n3cccc3)CCO2)n1 [Example 80, (2-(4,6-dimethylpyrimidin-2-yl)-1,2,5-oxadiazepan-5-yl) (2-(1H-pyrrol-1-yl)phenyl)methanone] |  |  | 14 | 94
Cc1ccc(-n2nccn2)c(C(=O)N2CCN(c3cc(C)nc(C)n3)OC[C@H]2C)c1 [Example 6, ((6R)-2-(2,6-dimethylpyrimidin-4-yl)-6-methyl-1,2,5-oxadiazepan-5-yl)(5-methyl-2-(2H-1,2,3-triazol-2-yl)phenyl)methanone] | 88 | 96 |  | 
Cc1ccc(-n2nccn2)c(C(=O)N2CCN(c3cc(C(F)F)ccn3)OC[C@H]2C)c1 [Example 139, ((6R)-2-(4-(difluoromethyl)pyridin-2-yl)-6-methyl-1,2,5-oxadiazepan-5-yl) (5-methyl-2-(2H-1,2,3-triazol-2-yl)phenyl)methanone] |  |  | 54 | 98
Cc1cc(N2CCN(C(=O)c3cc(F)ccc3-c3ncccn3)CCO2)nc(C)n1 [Example 27, (2-(2,6-dimethyl-pyrimidin-4-yl)-1,2,5-oxadiazepan-5-yl) (5-fluoro-2-(pyrimidin-2-yl)phenyl) methanone] | 45 | 102 |  | 
